Experimental data published in paper PMC5464911, “SEL120-34A is a novel CDK8 inhibitor active in AML cells with high levels of serine phosphorylation of STAT1 and STAT5 transactivation domains” (Oncotarget, 2017).
Values belong to the molecule of their own block, whether it stands above or below them.

Legend:
CDK8/CycC = CDK8/CycC (Homo sapiens, UniProt P49336); assay: Radiometric protein kinase assay (PanQinase, ProQinase)
Text: (§1) A radiometric protein kinase assay (PanQinase® Activity Assay, ProQinase) was used for measuring activities of CDK8/CycC and CDK19/CycC protein kinases.

CDK19/CycC = CDK19/CycC (Homo sapiens, UniProt Q9BWU1); assay: as above
Text: as §1

MOLM-14 cell line = system: MOLM-14 cell line; set-up: method as in PMID 26416749; conditions: previously identified; cited from earlier work
Oci-AML5 = assay: Extended viability test (AlamarBlue); assay type: cell-based; conditions: Homo sapiens, OCI-AML-5; extended viability assay
Kasumi-1 = assay: Extended viability test (AlamarBlue); assay type: cell-based; conditions: Homo sapiens, extended viability assay
SKM-1 = assay: Extended viability test (AlamarBlue); assay type: cell-based; conditions: Homo sapiens, extended viability assay
MOLM16 = assay: Extended viability test (AlamarBlue); assay type: cell-based; conditions: extended viability assay
EOL-1 = assay: Extended viability test (AlamarBlue); assay type: cell-based; conditions: Homo sapiens, EOL1; extended viability assay
SIG-M5 = assay: Extended viability test (AlamarBlue); assay type: cell-based; conditions: Homo sapiens, extended viability assay
AML cell lines = assay: Broad profiling in a panel of AML cell lines (extended viability tests); assay type: cell-based; conditions: SKNO-1, KG-1, HEL-60, MOLM-16, MV-4-11, OciAML-2, MOLM-6 and OciAML-3; read-out: GI50 in sensitive responder cell lines
Procedure: Mean GI50 (day 10) is shown and plotted on the graph (n=3). (D) Levels of phosphorylated STAT5 S726 and […] in AML cells from the panel C were measured by WB. Densitometry for STAT5 S726 and […] signals is shown and plotted on the graph. Cell lines from the panel D were divided into two classes based on the sensitivity to CDK8 inhibitors treatment (responders GI50<1 μM and non-responder GI50>1 μM), mean levels of STAT5 S726 (E) or STAT1 S727 (F) in selected cell lines measured by densitometry were presented on scatter plots. Differences between responder and non-responder were assessed by t-tests (p value is shown).
Cells grown in suspension were plated onto 96-well culture dishes in triplicate at 20000 cells per well in 200 μl of their culture medium, except Kasumi-1 cells, which were plated at 60 000/well. Cells were incubated in the presence of vehicle, 1 μM docetaxel (positive control, Santa Cruz Biotechnology) or 6 serially - diluted concentrations of tested compound. The compound effect was determined by AlamarBlue measurement. On days 3, 6-7 and 10, an equal volume from all wells was also split-back with fresh media supplemented with tested compound, resulting in a cell density for the vehicle well that matched the initial seeding density. […]

MOLM13 = assay: Extended viability test (AlamarBlue); assay type: cell-based; conditions: Homo sapiens, MOLM-13; extended viability assay
Oci-AML3 = assay: Extended viability test (AlamarBlue); assay type: cell-based; conditions: Homo sapiens, OCI-AML-3; extended viability assay
PL-21 = assay: Extended viability test (AlamarBlue); assay type: cell-based; conditions: extended viability assay
MV4-11 = assay: Extended viability test (AlamarBlue); assay type: cell-based; conditions: Homo sapiens, extended viability assay
KG-1 = assay: Extended viability test (AlamarBlue); assay type: cell-based; conditions: Homo sapiens, extended viability assay
ME-1 = assay: Extended viability test (AlamarBlue); assay type: cell-based; conditions: extended viability assay
GDM-1 = assay: Extended viability test (AlamarBlue); assay type: cell-based; conditions: Homo sapiens, extended viability assay
RNAP II CTD S2 and S5 = assay: RNAP II CTD phosphorylation in HCT-116 cells (WB); assay type: cell-based; conditions: SEL120-34A up to 2.5 μM
Procedure: 0,1% SDS; 20 mM β-glicerol phosphate; 5 mM NaF; cat. # sc835), α-STAT5-pS726 (1:1000; Abcam, cat. # 1 mM Na3VO4) supplemented with protease inhibitors ab128896), α-STAT5-pY694 (1:1000; Cell Signaling, (Santa Cruz Biotechnology). Tumor samples were cat. #C11C5), α-tubulin (1:4000; Sigma, cat. # T5192) homogenized in 15 sec intervals and kept on ice between and β-actin (1:4000, Sigma cat. # A2066) or GAPDH homogenization cycles. Protein concentration in lysates (1:20000; Sigma, cat. # G9545) was measured by the Bradford assay and adjusted to achieve the same final concentration in each well (20-30 mRNA extraction from xenograft tissue μg protein/well). […] A scoop Unless indicated otherwise, membranes were blocked of a tumor (~25mg) was homogenized with a pestle for 45 min with 2% fat-free dried milk (Rovema, Poland) under liquid nitrogen and immediately processed in Tris-buffered saline (TBS) + 0.05% Tween (TBST), according to the RNeasy Mini Kit protocol (Qiagen). incubated overnight at 4°C with primary antibodies diluted The RNA concentration was measured by a NanoDrop into 2% milk in TBST and washed four times for 10 min spectrophotometer and stored at -80°C for downstream with TBST. […]
with the activities of CDK9 in cells. […] Protein levels of RNAP II CTD pS2, pS5, cMYC and GAPDH were measured by WB.

STAT5 S726 and Y694 = assay: STAT phosphorylation in SET-2 cells (JAK2 V617F), WB; assay type: cell-based; conditions: 24 hours
Procedure: (B) SEL120-34A inhibits IFN-dependent phosphorylation of STAT1 S727. HCT-116 cells stimulated with IFNg for 4 h were treated with increasing doses of SEL120-34A, Flavopiridol (F) or vehicle DMSO (C) to determine changes in the phosphorylation of STAT1 S727 and Y701, as measured by WB. (*) unspecific band. (C) SEL120-34A inhibits serine phosphorylation of STAT1 S727 and STAT5 S726, whereas Ruxolitinib inhibits tyrosine phosphorylation of STAT1 Y701 and STAT5 Y694 in JAK2 V617F cells. SET-2 cells were treated with Ruxolitinib, SEL120-34A or vehicle DMSO (C) for 24 hours and protein levels of pS727, pY701 STAT1 and pS726, pY694 STAT5 were measured by WB. […]
0,1% SDS; 20 mM β-glicerol phosphate; 5 mM NaF; cat. # sc835), α-STAT5-pS726 (1:1000; Abcam, cat. # 1 mM Na3VO4) supplemented with protease inhibitors ab128896), α-STAT5-pY694 (1:1000; Cell Signaling, (Santa Cruz Biotechnology). […] Protein concentration in lysates (1:20000; Sigma, cat. # G9545) was measured by the Bradford assay and adjusted to achieve the same final concentration in each well (20-30 mRNA extraction from xenograft tissue μg protein/well). […] Prior to microarray analyses, the quality of the incubation with secondary donkey anti-rabbit antibodies RNA samples was determined using an Agilent 2100 conjugated to HRP, used at 1:4000 (Cell Signaling, Bioanalyzer (Agilent Technologies, CA, USA). […]

CDK8/CycC, sequence (P49336 whole entry): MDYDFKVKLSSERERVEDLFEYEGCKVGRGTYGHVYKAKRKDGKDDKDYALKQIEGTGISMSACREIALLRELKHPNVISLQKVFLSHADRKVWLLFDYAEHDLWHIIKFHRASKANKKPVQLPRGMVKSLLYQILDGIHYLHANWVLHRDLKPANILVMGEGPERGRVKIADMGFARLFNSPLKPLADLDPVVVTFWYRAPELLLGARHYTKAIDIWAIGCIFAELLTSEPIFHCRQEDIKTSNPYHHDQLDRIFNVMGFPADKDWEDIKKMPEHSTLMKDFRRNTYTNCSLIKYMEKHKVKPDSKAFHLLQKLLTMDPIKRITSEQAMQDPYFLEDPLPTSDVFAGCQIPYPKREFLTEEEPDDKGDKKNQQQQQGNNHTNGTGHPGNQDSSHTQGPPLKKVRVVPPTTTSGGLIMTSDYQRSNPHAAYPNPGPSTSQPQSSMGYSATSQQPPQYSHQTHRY
CDK8/CycC, sequence (P24863 whole entry partner): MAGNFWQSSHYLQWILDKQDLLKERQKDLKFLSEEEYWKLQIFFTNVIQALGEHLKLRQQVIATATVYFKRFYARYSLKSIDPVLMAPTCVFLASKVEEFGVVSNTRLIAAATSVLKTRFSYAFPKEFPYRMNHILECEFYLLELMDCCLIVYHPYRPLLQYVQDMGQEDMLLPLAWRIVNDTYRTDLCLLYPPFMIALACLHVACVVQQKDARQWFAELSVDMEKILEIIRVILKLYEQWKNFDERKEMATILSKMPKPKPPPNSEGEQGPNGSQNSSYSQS
CDK19/CycC, sequence (Q9BWU1 whole entry): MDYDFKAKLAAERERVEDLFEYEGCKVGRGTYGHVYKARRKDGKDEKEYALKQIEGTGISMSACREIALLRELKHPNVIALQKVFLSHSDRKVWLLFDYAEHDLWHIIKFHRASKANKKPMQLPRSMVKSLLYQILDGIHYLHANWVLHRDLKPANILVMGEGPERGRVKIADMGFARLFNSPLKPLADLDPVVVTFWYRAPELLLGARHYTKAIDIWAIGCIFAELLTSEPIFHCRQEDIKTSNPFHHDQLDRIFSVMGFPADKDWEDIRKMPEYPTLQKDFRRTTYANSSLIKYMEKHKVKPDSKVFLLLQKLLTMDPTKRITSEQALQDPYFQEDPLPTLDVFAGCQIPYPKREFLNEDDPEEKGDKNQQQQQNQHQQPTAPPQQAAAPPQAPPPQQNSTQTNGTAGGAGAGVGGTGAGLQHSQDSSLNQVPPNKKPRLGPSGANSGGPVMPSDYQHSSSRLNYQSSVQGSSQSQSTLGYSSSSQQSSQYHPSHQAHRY
CDK19/CycC, sequence (P24863 whole entry partner): as the sequence (P24863 whole entry partner) above

IC50 (CDK8/CycC): 4.2 nM | IC50 (CDK19/CycC): 14.4 nM
SMILES: Cn1cc(-c2ccc(-c3cncc(Cl)c3N3CCC4(CCNC4=O)CC3)cc2)cn1 [CCT251545, reference compound]

SMILES: CN(C)[C@H]1C[C@@]23CC[C@@]4(O2)C(=CC[C@]2(C)[C@@H](c5ccc6ccncc6c5)CC[C@H]24)C=C3[C@@H](O)[C@@H]1O [CA, Cortistatin A]
sensitivity of MOLM-14 cell line to treatment (MOLM-14 cell line): sensitive

GI50 (Oci-AML5): 70 nM | GI50 (SKM-1): 5000 nM | GI50 (MOLM16): 340 nM | IC50 (CDK8/CycC): 17.3 nM | GI50 (MOLM13): 5000 nM | GI50 (Oci-AML3): 360 nM | GI50 (MV4-11): 230 nM
SMILES: CN1CCN(C(=O)c2ccc3cc(CCNc4ncnc5ccc(C#N)cc45)ccc3c2)CC1 [Senexin B, reference compound]
GI50 (Kasumi-1): 5000 nM | GI50 (EOL-1): 960 nM | GI50 (SIG-M5): 5000 nM | GI50 (AML cell lines): < 1000 nM | GI50 (PL-21): 2600 nM | GI50 (KG-1): 150 nM | GI50 (ME-1): 170 nM | GI50 (GDM-1): 270 nM

SMILES: CN1CC[C@H](c2c(O)cc(O)c3c(=O)cc(-c4ccccc4Cl)oc23)[C@H](O)C1 [Flavopiridol, reference compound]
RNAP II CTD phosphorylation at S2 and S5 (RNAP II CTD S2 and S5): active

SMILES: N#CC[C@H](C1CCCC1)n1cc(-c2ncnc3[nH]ccc23)cn1 [Ruxolitinib, reference compound]
STAT5 S726 phosphorylation (STAT5 S726 and Y694): unaffected | STAT5 Y694 phosphorylation (STAT5 S726 and Y694): inhibition
